Common to all, as to format: physicochemical
Series [1] is described as follows: Water content by gravimetric moisture sorption/desorption and TGA. As for the experimental part:
The water values at varying relative humidities were obtained by recording moisture sorption isotherms with a SPS-11 moisture sorption analyzer (MD Messtechnik, Ulm, D). […] The equilibrium condition for each step was set to a mass constancy of ±0.005% over 60 min. The temperature was 25±0.1° C.
Thermogravimetric analysis (TGA) was performed using the following equipment/conditions: Thermogravimetric-system TGA-7, Pyris-Software für Windows NT, (Perkin-Elmer, Norwalk, Conn., USA), Platinum-sample holder (50 μl), Nitrogen as the purge gas (Sample purge: 20 mL/min, balance purge: 40 mL/min). Heating rate: 10 K/min; Heating Range: 25-100° C.;

The nature of series [2]: Equilibrium aqueous solubility (HPLC). The following applies: for Rel. Solubilities: equilibrium aqueous solubility at 25 ± 1° C., relative to forms HxA/HxB = 100. As to the method: The aqueous solubilities of 1-(β-D-glucopyranosyl)-4-methyl-3-[5-(4-fluorophenyl)-2-thienylmethyl]benzene forms HxA and HxB of the present invention and the hemihydrate of 1-(β-D-glucopyranosyl)-4-methyl-3-[5-(4-fluorophenyl)-2-thienylmethyl]benzene described in WO 2008/069327 A1 were determined by the equilibrium solubility method. Saturated solutions of 1-(β-D-glucopyranosyl)-4-methyl-3-[5-(4-fluorophenyl)-2-thienylmethyl]benzene, obtained by stirring 50 mg of each crystalline form in 50 mL water were prepared and stirred at 25±1° C. After 60 minutes of stirring, three samples were withdrawn, filtered through 0.45 μm syringe filters and the filtrates were directly analyzed by HPLC. • Column: C18 4.6×150 mm 5 μm • Eluent A: 0.1% formic acid-water solution • Eluent B: 0.1% formic acid-acetonitril solution • Injection vol.: 100 μL • Column Temp.: 25° C. • Wavelength: 220 nm • Pump flow: 1.2 mL/min • Gradient: […]
Using six concentration points of known 1-(β-D-glucopyranosyl)-4-methyl-3-[5-(4-fluorophenyl)-2-thienylmethyl]benzene concentrations a calibration line was fitted by linear regression.

Series [3] can be described thus: Competitive slurry in water (XRPD). The following applies: 50 mg each in 4 mL water, cycled 7 to 10° C. for 4 days, then 10 to 30° C. for 9 days. As for the experimental part: A suspension of 50 mg 1-(β-D-glucopyranosyl)-4-methyl-3-[5-(4-fluorophenyl)-2-thienylmethyl]benzene form HxA (for example prepared according to the procedure described in example 1 of the present invention) and 50 mg 1-(β-D-glucopyranosyl)-4-methyl-3-[5-(4-fluorophenyl)-2-thienylmethyl]benzene hemihydrate (for example prepared according to the procedure described in example 1 of WO 2008/069327 A1) in 4 mL water was stirred at moderate velocity using a magnetic stirrer. The temperature during the slurry experiment was first cycled between 7 to 10° C. for 4 days changing the temperature every 2 hours. Thereafter the suspension was cycled in the range of 10 to 30° C. for 9 days changing the temperature every 2 hours.

As to `Cc1ccc([C@@H]2O[C@H](CO)[C@@H](O)[C@H](O)[C@H]2O)cc1Cc1ccc(-c2ccc(F)cc2)s1` [form HxA, 1-(β-D-glucopyranosyl)-4-methyl-3-[5-(4-fluorophenyl)-2-thienylmethyl]benzene], the values for the water content entry in series [1] (at a RH of about 0%) and in series [1] (at a RH of about 30%) were “about 0.1%” and “about 3.5%”, respectively. Also, the “Rel. Solubilities” value in series [2] was determined as 100%. Also, the “increased aqueous solubility compared to the crystalline hemihydrate of WO 2008/069327 A1” value in series [2] (water, 25.0±1.0° C.) came out at 10%. Moreover, in series [3], the “solid form stability in competitive slurry with hemihydrate” value is on record as “does not transform”.

With `Cc1ccc([C@@H]2O[C@H](CO)[C@@H](O)[C@H](O)[C@H]2O)cc1Cc1ccc(-c2ccc(F)cc2)s1` [form HxB, 1-(β-D-glucopyranosyl)-4-methyl-3-[5-(4-fluorophenyl)-2-thienylmethyl]benzene], the values for the water content entry in series [1] (at a RH of about 40%) and in series [1] (at a RH of about 95%) were “about 6.4%” and “about 8.0%”, respectively.

As for `Cc1ccc([C@@H]2O[C@H](CO)[C@@H](O)[C@H](O)[C@H]2O)cc1Cc1ccc(-c2ccc(F)cc2)s1` [form Hy0.5, 1-(β-D-glucopyranosyl)-4-methyl-3-[5-(4-fluorophenyl)-2-thienylmethyl]benzene hemihydrate, reference compound], the “Rel. Solubilities” value in series [2] (listed as hemihydrate of WO 2008/069327 A1 (=Hy0.5), hemihydrate) stood at 90%.
